The OPERA property sets (Mansouri et al. 2018)
Values after ≈ are worked out from the molar mass of the structure shown.

Settings: 20 °C
Work on `Clc1ccc(-c2cc(Cl)c(Cl)c(Cl)c2Cl)c(Cl)c1` yielded a solubility of 3.02 nM (≈ 1.09 ng/mL). For `Clc1cc(Cl)c(-c2ccc(Cl)c(Cl)c2Cl)cc1Cl`, the solubility was 4.16 nM (≈ 1.5 ng/mL). In the case of `Clc1ccc(Cl)c(-c2c(Cl)ccc(Cl)c2Cl)c1`, the solubility is reported as 64.6 nM (≈ 21.1 ng/mL).

Same assay, conditions: 25 °C
`Clc1ccc(-c2c(Cl)c(Cl)c(Cl)c(Cl)c2Cl)c(Cl)c1` gave a solubility of 1.07 nM (≈ 0.423 ng/mL). `Clc1cc(Cl)c(-c2ccccc2Cl)c(Cl)c1` showed a solubility of 224 nM (≈ 65.4 ng/mL). Compound `Clc1cc(Cl)cc(-c2c(Cl)c(Cl)c(Cl)c(Cl)c2Cl)c1` has a solubility of 0.794 nM (≈ 0.314 ng/mL). In the case of `Clc1ccc(-c2cc(Cl)c(Cl)cc2Cl)c(Cl)c1`, the solubility is reported as 11.2 nM (≈ 3.66 ng/mL). In the case of `Clc1cc(-c2cc(Cl)c(Cl)c(Cl)c2Cl)cc(Cl)c1Cl`, the solubility is reported as 1.9 nM (≈ 0.753 ng/mL). `Clc1cc(Cl)c(-c2c(Cl)c(Cl)c(Cl)c(Cl)c2Cl)c(Cl)c1Cl` showed a solubility of 0.0788 nM (≈ 0.0366 ng/mL). In the case of `Clc1cc(Cl)c(-c2cc(Cl)c(Cl)c(Cl)c2Cl)c(Cl)c1`, the solubility is reported as 2.09 nM (≈ 0.826 ng/mL). In the case of `Clc1ccc(-c2ccccc2Cl)c(Cl)c1`, the solubility is reported as 323 nM (≈ 83.3 ng/mL). Work on `Clc1ccc(-c2c(Cl)c(Cl)cc(Cl)c2Cl)c(Cl)c1Cl` yielded a solubility of 3.8 nM (≈ 1.5 ng/mL). `Clc1cc(Cl)c(-c2cc(Cl)ccc2Cl)c(Cl)c1` gave a solubility of 33.9 nM (≈ 11.1 ng/mL). With `Clc1ccc(Cl)c(-c2c(Cl)c(Cl)cc(Cl)c2Cl)c1Cl` the solubility was 11.5 nM (≈ 4.54 ng/mL). Compound `Clc1ccc(-c2c(Cl)cc(Cl)cc2Cl)c(Cl)c1` has a solubility of 21.9 nM (≈ 7.14 ng/mL). In the case of `Clc1cc(-c2c(Cl)ccc(Cl)c2Cl)c(Cl)c(Cl)c1Cl`, the solubility is reported as 2.57 nM (≈ 1.02 ng/mL). With `Clc1cc(-c2c(Cl)cccc2Cl)c(Cl)c(Cl)c1Cl` the solubility was 7.41 nM (≈ 2.68 ng/mL). `Clc1cc(Cl)c(-c2cc(Cl)c(Cl)cc2Cl)c(Cl)c1` showed a solubility of 7.59 nM (≈ 2.74 ng/mL). For `Clc1cc(Cl)c(-c2c(Cl)c(Cl)cc(Cl)c2Cl)c(Cl)c1Cl`, the solubility was 0.631 nM (≈ 0.271 ng/mL). Work on `Clc1ccc(Cl)c(-c2c(Cl)c(Cl)c(Cl)c(Cl)c2Cl)c1Cl` yielded a solubility of 0.794 nM (≈ 0.341 ng/mL). Work on `Clc1cc(Cl)c(-c2ccc(Cl)c(Cl)c2Cl)c(Cl)c1` yielded a solubility of 5.76 nM (≈ 2.08 ng/mL). Compound `Clc1cc(-c2cc(Cl)c(Cl)c(Cl)c2)cc(Cl)c1Cl` has a solubility of 1.41 nM (≈ 0.51 ng/mL). For `Clc1cc(-c2c(Cl)cc(Cl)c(Cl)c2Cl)c(Cl)c(Cl)c1Cl`, the solubility was 0.38 nM (≈ 0.163 ng/mL). `Clc1ccc(Cl)c(-c2c(Cl)cc(Cl)c(Cl)c2Cl)c1` showed a solubility of 9.77 nM (≈ 3.53 ng/mL). In the case of `Clc1ccc(-c2c(Cl)cccc2Cl)c(Cl)c1Cl`, the solubility is reported as 166 nM (≈ 54.2 ng/mL). `Clc1cccc(-c2c(Cl)cccc2Cl)c1Cl` showed a solubility of 501 nM (≈ 146 ng/mL). With `Clc1cc(Cl)c(-c2c(Cl)c(Cl)c(Cl)c(Cl)c2Cl)c(Cl)c1` the solubility was 0.331 nM (≈ 0.142 ng/mL). `Clc1cc(Cl)c(-c2c(Cl)c(Cl)c(Cl)c(Cl)c2Cl)cc1Cl` showed a solubility of 0.316 nM (≈ 0.136 ng/mL). Compound `Clc1cc(Cl)c(-c2cc(Cl)c(Cl)c(Cl)c2)cc1Cl` has a solubility of 6.17 nM (≈ 2.23 ng/mL). `Clc1cccc(-c2ccc(Cl)c(Cl)c2Cl)c1` showed a solubility of 170 nM (≈ 49.6 ng/mL). Compound `Clc1cccc(-c2cc(Cl)c(Cl)cc2Cl)c1` has a solubility of 74.1 nM (≈ 21.7 ng/mL). `Clc1cc(Cl)c(-c2ccc(Cl)c(Cl)c2)c(Cl)c1` gave a solubility of 12.3 nM (≈ 4.02 ng/mL). Compound `Clc1ccc(-c2c(Cl)cccc2Cl)c(Cl)c1` has a solubility of 224 nM (≈ 65.4 ng/mL). `Clc1cccc(-c2c(Cl)c(Cl)cc(Cl)c2Cl)c1` gave a solubility of 17.4 nM (≈ 5.67 ng/mL). For `Clc1cc(Cl)cc(-c2c(Cl)c(Cl)cc(Cl)c2Cl)c1`, the solubility was 5.38 nM (≈ 1.94 ng/mL). Compound `Clc1cc(-c2c(Cl)ccc(Cl)c2Cl)cc(Cl)c1Cl` has a solubility of 5.37 nM (≈ 1.94 ng/mL). Work on `Clc1ccc(-c2cc(Cl)cc(Cl)c2Cl)cc1` yielded a solubility of 170 nM (≈ 49.6 ng/mL). Work on `Clc1cccc(-c2c(Cl)cc(Cl)c(Cl)c2Cl)c1Cl` yielded a solubility of 3.31 nM (≈ 1.19 ng/mL). For `Clc1cc(-c2c(Cl)c(Cl)cc(Cl)c2Cl)cc(Cl)c1Cl`, the solubility was 0.794 nM (≈ 0.314 ng/mL). Compound `Clc1cc(Cl)cc(-c2ccccc2Cl)c1` has a solubility of 501 nM (≈ 129 ng/mL). `Clc1ccccc1-c1c(Cl)c(Cl)cc(Cl)c1Cl` gave a solubility of 39.8 nM (≈ 13 ng/mL). For `Clc1ccc(-c2cc(Cl)cc(Cl)c2Cl)c(Cl)c1`, the solubility was 15.1 nM (≈ 4.94 ng/mL). In the case of `Clc1cc(Cl)c(-c2c(Cl)cc(Cl)c(Cl)c2Cl)c(Cl)c1Cl`, the solubility is reported as 0.794 nM (≈ 0.341 ng/mL). Compound `Clc1cc(-c2c(Cl)cc(Cl)c(Cl)c2Cl)cc(Cl)c1Cl` has a solubility of 0.794 nM (≈ 0.314 ng/mL). For `Clc1ccc(-c2c(Cl)cc(Cl)c(Cl)c2Cl)cc1`, the solubility was 11.2 nM (≈ 3.66 ng/mL). `Clc1cccc(-c2cc(Cl)c(Cl)c(Cl)c2Cl)c1Cl` gave a solubility of 3.8 nM (≈ 1.37 ng/mL). For `Clc1cc(Cl)c(Cl)c(-c2c(Cl)cc(Cl)c(Cl)c2Cl)c1`, the solubility was 2.09 nM (≈ 0.826 ng/mL). Compound `Clc1ccc(-c2c(Cl)cccc2Cl)cc1Cl` has a solubility of 95.5 nM (≈ 27.9 ng/mL). With `Clc1cc(Cl)c(-c2c(Cl)c(Cl)cc(Cl)c2Cl)c(Cl)c1` the solubility was 3.24 nM (≈ 1.28 ng/mL). With `Clc1ccc(-c2c(Cl)ccc(Cl)c2Cl)c(Cl)c1` the solubility was 67.7 nM (≈ 22.1 ng/mL). For `Clc1cc(Cl)c(-c2c(Cl)ccc(Cl)c2Cl)c(Cl)c1Cl`, the solubility was 7.08 nM (≈ 2.8 ng/mL). Compound `Clc1cc(Cl)c(Cl)c(-c2ccccc2)c1Cl` has a solubility of 56.2 nM (≈ 16.4 ng/mL). `Clc1ccc(-c2ccccc2)cc1Cl` showed a solubility of 407 nM (≈ 90.9 ng/mL). In the case of `Clc1cc(-c2c(Cl)c(Cl)cc(Cl)c2Cl)c(Cl)c(Cl)c1Cl`, the solubility is reported as 0.513 nM (≈ 0.22 ng/mL). In the case of `Clc1ccc(-c2ccccc2)c(Cl)c1Cl`, the solubility is reported as 661 nM (≈ 170 ng/mL). For `Clc1cc(Cl)c(-c2cccc(Cl)c2Cl)c(Cl)c1`, the solubility was 39.8 nM (≈ 13 ng/mL). With `Clc1cc(Cl)cc(-c2c(Cl)ccc(Cl)c2Cl)c1` the solubility was 11.2 nM (≈ 3.66 ng/mL). `Clc1cc(Cl)c(Cl)c(-c2cc(Cl)c(Cl)cc2Cl)c1` showed a solubility of 2.63 nM (≈ 0.949 ng/mL).
